From patent publication US11129870B2, “Compositions and methods for uncoupling TrkB receptor from PLC gamma 1 for the treatment of epilepsy and anxiety-like disorder” (DUKE UNIVERSITY, priority 2010, dated 2021)
Where no end group is shown, it is not given here. [ ]: non-standard residue; d: D form. pY = N[C@@H](Cc1ccc(OP(=O)(O)O)cc1)C(=O)O

How the values were obtained:
Type in all cases: in vivo, mouse
PLCγ1 [1] = assay: SE-induced activation of PLCγ1 in hippocampus, peptide given i.v. after SE; conditions: 6 hr later
Procedure: Surgery and microinfusion studies provided in Examples 10-14 were performed as described here. Surgery and microinfusion of KA into right amygdala of adult mice was performed as previously described (Liu, G. et al., (2013) Neuron 79:31-38). Briefly, mice were anesthetized with pentobarbital (60 mg/kg, intraperitoneally [i.p.]) and placed in a stereotaxic frame. A guide cannula was stereotactically placed above the right amygdala (coordinates from bregma: AP=−1.2 mm; ML=3.0 mm). A bipolar electrode was placed in the left dorsal hippocampus (coordinates from bregma: AP=−2.0 mm; ML=−1.6 mm; DV=−1.5 mm). A ground electrode connected to a screw was placed in the skull above the cerebellum. After a postoperative recovery period of 7 days, the animal was gently restrained and an infusion cannula was inserted into the right amygdala through the guide cannula at the depth of 3.7 mm below dura. […]
(§1) Animals were anesthetized with pentobarbital (200 mg/kg i.p.) and decapitated, and the head was quickly immersed in liquid nitrogen for 4 s to rapidly cool the brain. […] The immunoreactivity of individual bands on western blots was measured by ImageJ software (National Institutes of Health) and normalized to PLCγ1, Akt or ERK contents. Equivalent protein loading among samples was monitored by β-actin (1:10000; Sigma) levels. […]

PLCγ1 [2] = assay: p-PLCγ1 in brain of naive mice after intravenous peptide (western blot)
Procedure: An important issue with respect to usefulness of Tat-pTRKBY816 is whether, following peripheral administration, the peptide can inhibit PLCγ1 activation in the brain in vivo. To test this idea, adult C57/B6 mice underwent tail vein injection of vehicle (normal saline [NS]) or Tat-scrambled-pTrkY816 or Tat-pTrkBY816 (10 mg/kg, 2 mice per group). Animals were sacrificed 3 hours post administration, the hippocampus dissected and homogenate prepared for western blotting. […] These findings support the assertion that the peptide passes through the blood brain barrier and inhibits PLCγ1 activation in vivo.
as §1, with “brain. The hippocampi were rapidly dissected on ice and homogenized in RIPA buffer, incubated on ice for 15 min, and centrifuged at 200,000×g for 10 min at 4° C. The supernatant was collected and stored at −80° C. until further analysis.” for “brain.”

Akt = assay: p-Akt in hippocampal lysates of naive mice after i.v. peptide; conditions: 10 mg/kg i.v., 3 hr
Procedure: Animals were anesthetized with pentobarbital (200 mg/kg i.p.) and decapitated, and the head was quickly immersed in liquid nitrogen for 4 s to rapidly cool the brain. The hippocampi were rapidly dissected on ice and homogenized in RIPA buffer, incubated on ice for 15 min, and centrifuged at 200,000×g for 10 min at 4° C. The supernatant was collected and stored at −80° C. until further analysis. TrkB was immunoprecipitated using TrkB antibody (1:1000, Millipore) and the lysates were incubated with 100 μL of protein A-Sepharose beads (Roche) overnight in 4° C. The beads/immune complexes were pelleted in a microcentrifuge and then resuspended in RIPA buffer and this procedure was repeated two additional times before adding 2×SDS PAGE sample buffer and boiled. After SDS PAGE, the gels were probed with TrkB and PLCγ1 antibody (1:1000, Cell signaling). Western blotting was conducted as previously described (He et al., 2010). Cell lysate and hippocampal homogenate were probed with p-PLCγ1 (pY783), PLCγ1, p-Akt (pS473), Akt, p-ERK (p44/p42) and ERK (1:1000, Cell signaling). The immunoreactivity of individual bands on western blots was measured by ImageJ software (National Institutes of Health) and normalized to PLCγ1, Akt or ERK contents. Equivalent protein loading among samples was monitored by β-actin (1:10000; Sigma) levels. […]

## YGRKKRRQRRR-LQNLAKASPVpYLDI (YGRKKRRQRRRLQNLAKASPV[pY]LDI) [pY816]
PLCγ1 [1]; 10 mg/kg i.v. immediately after diazepam
  inhibition of SE-induced activation of PLCγ1 (p-PLCγ1 pY783 to PLCγ1 ratio): ~75%
PLCγ1 [1]; 20 mg/kg i.v. immediately after diazepam
  inhibition of SE-induced activation of PLCγ1 (p-PLCγ1 pY783 to PLCγ1 ratio): ~75%
PLCγ1 [2]; 10 mg/kg i.v., 3 hr, hippocampal lysates, in comparison to Scr
  reduction of p-PLCγ1 (pY783) immunoreactivity: ~50%
PLCγ1 [2]; 10 mg/kg tail vein, 3 hours post administration, vs saline or scrambled peptide
  phospho-PLCγ1 in brain homogenate: reduced the phosphor-PLCγ1
Akt
  p-Akt in hippocampal lysates: neither p-Akt nor p-ERK was affected
